Laboratory results from patent US20050019314A1, “Method and compositions for treating respiratory pathologies” (priority 2001, published 2005).
Marks after values point to notes of the source that are not given here.

How the values were obtained:
Type in all cases: in vivo, rat
male Wistar rats [1] = experiment: Pulmonary paracellular permeability to 125I-labelled human serum albumin after intratracheal Pseudomonas aeruginosa LPS
Description: For this experiment, three groups of 6 male Wistar rats (200-225 g) were pretreated either with ML-7 by the IP route (3 mg/kg then 1 mg/kg 3 times a day for 48 h) or the vehicle (ethanol 10%). One hour after the next-to-last administration of ML-7, under urethane anesthesia ([…] IP), a slow intratracheal infusion of 150 μl of an iso-osmolar solution (5% bovine albumin+PBS) containing the tracer and containing (2 groups) or not containing (control group) LPS (1 μg/rat) was given.

male Wistar rats [2] = experiment: Immune cell accumulation in bronchoalveolar lavage fluid induced by intratracheal instillation of taurocholate (ML-7)
Description: For this experiment, three groups of 8 male Wistar rats (250-300 g) were given either ML-7 by the IP route at a dose of 1 mg/kg/12 h for 36 hours, or the vehicle alone. […] At time t=2 h after the intratracheal instillation, animals were anesthetized for bronchoalveolar lavage, then sacrificed.

male Wistar rats [3] = experiment: Immune cell accumulation in bronchoalveolar lavage fluid induced by intratracheal infusion of Pseudomonas aeruginosa LPS
Description: For this experiment, three groups of 7 male Wistar rats (200-225 g) were used. Animals were pretreated with either ML-7 by the IP route (3 mg/kg then 1 mg/kg, 3 times a day for 48 h) or with the vehicle (ethanol 10%). One hour after the next-to-last ML-7 administration, under urethane anesthesia ([…]), a slow intratracheal infusion of 150 μl of an iso-osmolar solution (5% bovine albumin+PBS) containing (2 groups) or not containing (control group) LPS (1 μg/rat) was given. Four hours after the intratracheal infusion, bronchoalveolar lavage was performed.

male Wistar rats [4] = experiment: Immune cell accumulation in bronchoalveolar lavage fluid induced by intratracheal infusion of taurocholate (PD-98059)
Description: For this experiment, three groups of 8 male Wistar rats (250-300 g) were given either PD-98059 by the IP route (1 mg/kg/12 h, 36 h) or the vehicle alone (DMSO).

male Wistar rats [5] = experiment: Immune cell accumulation in bronchoalveolar lavage fluid induced by intranasal instillation of SLIGRL in rats
Description: At time t=10 days, the four groups of animals were given a slow intranasal instillation of 200 μl of physiologic serum containing (groups 2 and 4) or not containing (groups 1 and 3) 0.2 mg of SLIGRL.
At time t=3 h after intranasal instillation, animals were anesthetized for bronchoalveolar lavage, then sacrificed.

[6] = ML-7 1 mg/kg/12 h, 36 h IP + taurocholate intratracheal, BAL 2 h, mean ± SD
[7] = ML-7 (3 mg/kg then 1 mg/kg 3 times a day for 48 h IP) + LPS, BAL 4 h, mean ± SEM
[8] = PD-98059 1 mg/kg/12 h, 36 h IP + taurocholate, BAL 2 h, mean ± SEM
[9] = Taurine 10% in drinking water 10 days + 0.9% NaCl IN, BAL 3 h
[10] = Taurine 10% in drinking water 10 days + PAR 2 (SLIGRL) IN, BAL 3 h
[11] = PAR 2 (SLIGRL) 0.2 mg/kg IN alone, no taurine, BAL 3 h after instillation

O=S(=O)(c1cccc2c(I)cccc12)N1CCCNCC1 [ML-7, 1-(5-iodonaphtalène-1-sulfonyl)-1H-hexahydro-1,4-diazepine]
effect on vascular endothelial cells (endothelium permeability, tone, pulmonary circulating hemodynamics) (male Wistar rats [1]; ML-7 IP + LPS, concluded from unchanged plasma radioactivity): does not present effect | LPS-induced increase in pulmonary permeability (male Wistar rats [1]; ML-7 pretreatment IP (3 mg/kg then 1 mg/kg 3 times a day for 48 h) + LPS): inhibited | Leucocytes in BAL (male Wistar rats [2]; [6]): 4160 ± 573 | Lymphocytes in BAL (male Wistar rats [2]; [6]): 101 ± 44 | Macrophages in BAL (male Wistar rats [2]; [6]): 3585 ± 398 | Neutrophils in BAL (male Wistar rats [2]; [6]): 473 ± 216 | intra-alveolar accumulation of immune cells (in words) (male Wistar rats [2]; ML-7 IP + intratracheal taurocholate): significantly reduces | Leucocytes in BAL (male Wistar rats [3]; [7]): 17243 ± 2956 cells/mm^3 BAL | Lymphocytes in BAL (male Wistar rats [3]; [7]): 902 ± 375 cells/mm^3 BAL | Macrophages in BAL (male Wistar rats [3]; [7]): 10708 ± 1713 cells/mm^3 BAL | Neutrophils in BAL (male Wistar rats [3]; [7]): 6587 ± 1749 cells/mm^3 BAL | LPS-induced increase in the number of neutrophils in BAL (in words) (male Wistar rats [3]; ML-7 pretreatment IP + LPS): reduced

COc1cccc(-c2cc(=O)c3ccccc3o2)c1N [PD-98059, 2-(amino-3-methoxyphenyl)-4H-1-benzopyran-4-one]
Eosinophils in BAL (male Wistar rats [4]; [8]): 27 ± 27 cells/mm^3 BAL | Leucocytes in BAL (male Wistar rats [4]; [8]): 21424 ± 3164 cells/mm^3 BAL | Lymphocytes in BAL (male Wistar rats [4]; [8]): 774 ± 183 cells/mm^3 BAL | Macrophages in BAL (male Wistar rats [4]; [8]): 17956 ± 2465 cells/mm^3 BAL | Neutrophils in BAL (male Wistar rats [4]; [8]): 2652 ± 600 cells/mm^3 BAL | intra-alveolar accumulation of immune cells (in words) (male Wistar rats [4]; PD-98059 IP + intratracheal taurocholate): reduces

NCCS(=O)(=O)O [Taurine, taurine]
Eosinophils in BAL (male Wistar rats [5]; [9]): 17 ± 1 mm^3 | Lymphocytes in BAL (male Wistar rats [5]; [9]): 22 ± 8 mm^3 | Macrophages in BAL (male Wistar rats [5]; [9]): 1651 ± 72 mm^3 | Neutrophils in BAL (male Wistar rats [5]; [9]): 34 ± 3 mm^3 | Tot. Leucocytes in BAL (male Wistar rats [5]; [9]): 1728 ± 111 mm^3 | Eosinophils in BAL (male Wistar rats [5]; [10]): 17 ± 1* mm^3 | Lymphocytes in BAL (male Wistar rats [5]; [10]): 22 ± 8* mm^3 | Macrophages in BAL (male Wistar rats [5]; [10]): 1967 ± 103* mm^3 | Neutrophils in BAL (male Wistar rats [5]; [10]): 34 ± 3* mm^3 | Tot. Leucocytes in BAL (male Wistar rats [5]; [10]): 2086 ± 134* mm^3 | SLIGRL-induced accumulation of eosinophils and neutrophils in BAL (in words) (male Wistar rats [5]; animals treated with taurine, t = 3 h): not in animals treated with taurine

SLIGRL [PAR 2]
Eosinophils in BAL (male Wistar rats [5]; [11]): 32 ± 2^+ mm^3 | Lymphocytes in BAL (male Wistar rats [5]; [11]): 297 ± 28 mm^3 | Macrophages in BAL (male Wistar rats [5]; [11]): 5559 ± 63^+ mm^3 | Neutrophils in BAL (male Wistar rats [5]; [11]): 656 ± 41^+ mm^3 | Tot. Leucocytes in BAL (male Wistar rats [5]; [11]): 6464 ± 99^+ mm^3 | eosinophils and neutrophils in bronchoalveolar lavage fluid (in words) (male Wistar rats [5]; intranasal SLIGRL, control animals (no taurine), t = 3 h): results in accumulation
